# Patent US11654140B2, “Treatment of ocular inflammatory diseases using laquinimod” (Active Biotech AB, priority 2012, dated 2023)
# How the values were obtained:
# [1] = system: subject suffering from an OID; test: Laquinimod for treating OID (Example 9); assay type: in vivo; conditions: laquinimod composition, once daily
# Description: (§1) In the examples 4-9 below, the administration of the composition is once daily. The administration can be repeated daily for a period of one, two, three or four days, up to 14 days, or longer as necessary.
# A laquinimod composition as described herein is administered to a subject suffering from an OID. The administration of the composition is effective to treat the subject suffering from the OID. The administration of the composition is also effective to reduce intraocular inflammation in the subject.
# [2] = system: subject suffering from uveitis; test: Laquinimod for treating uveitis (Example 4); assay type: in vivo; conditions: laquinimod composition administered to the eye, once daily
# Description: In the examples 4-9 below, the administration of the composition is once daily. The administration can be repeated daily for a period of one, two, three or four days, up to 14 days, or longer as necessary. A laquinimod composition as described herein is administered to the eye of a subject suffering from uveitis. The administration of the composition is effective to treat the subject suffering from uveitis. The administration of the composition is also effective to reduce intraocular inflammation in the subject. The administration of the composition is also effective to reduce retina tissue destruction in the subject.
# [3] = system: S-antigen-induced uveitis in albino rats; test: Ocular vs oral laquinimod in S-antigen-induced uveitis in albino rats, clinical score (Example 10); assay type: in vivo, rat; conditions: once daily, 7 days
# [4] = system: subject suffering from viral conjunctivitis; test: Laquinimod for treating viral conjunctivitis (Example 6); assay type: in vivo; conditions: laquinimod composition, once daily
# Description: as §1
# A laquinimod composition as described herein is administered to a subject suffering from viral conjunctivitis. The administration of the composition is effective to treat the subject suffering from viral conjunctivitis. The administration of the composition is also effective to reduce intraocular inflammation in the subject.
# [5] = Animal body weight and adverse clinical effects, ovalbumin study (Example 2); assay type: in vivo; conditions: laquinimod-treated mice, multiple topical administrations
# From the text: This weight loss is commonly observed during chronic corticosteroid treatments.
# [6] = system: subject suffering from an inflammation of the orbital tissue, the lacrimal apparatus, the eyelid, the cornea, the retina or the optic pathway; test: Laquinimod for treating inflammation in the eye (Example 7); assay type: in vivo; conditions: laquinimod composition, once daily
# Description: as §1
# A laquinimod composition as described herein is administered to a subject suffering from an inflammation of the orbital tissue, the lacrimal apparatus, the eyelid, the cornea, the retina or the optic pathway in the eye. The administration of the composition is effective to treat the subject suffering from the inflammation. The administration of the composition is also effective to reduce intraocular inflammation in the subject.
# [7] = system: S-antigen-induced uveitis in albino rats; test: Ocular vs oral laquinimod in S-antigen-induced uveitis in albino rats, histological analysis (Example 10); assay type: in vivo, rat; conditions: for Histological ocular evaluation, % Inhibition: Day 19
# [8] = system: S-antigen-induced experimental autoimmune uveitis (EAU) in rats; test: EAU model in rats, histological ocular evaluation (Example 1); assay type: in vivo, rat; conditions: Day 16; for Histological ocular evaluation of both eyes, mean histologic grade: 10 μl once daily both eyes from Day 7, scale 0-7
# Description: (§2) A 1% (10 mg/ml) and a 5% (50 mg/ml) solution of laquinimod sodium were prepared in sterile water. Dissolution of laquinimod powder was achieved by shaking, stirring, or low-speed vortex. The solutions were stored for up to 2 weeks at 2-8° C. and up to 24 hours at room temperature. Laquinimod solutions were prepared under light protection and were protected from light for the duration of the experiment. […] One 100 mg/4 ml in olive oil dose was prepared every 2 days and stored at room temperature.
# (§3) Thirty two female albino Lewis rats were randomly divided into four (4) groups of eight (8) rats. Ocular inflammation was induced at Day 1 by injection of 100 μl of human S-antigen (100 μg) in Freud's complete adjuvant (4 mg/ml) into the footpad of each rat, and an intraperitoneal injection of 1 μg/100 μl pertussis toxin.
# (§4) Beginning on Day 7 until the end of the study, each animal group was treated with a test solution in both eyes as shown in Table 1:
# Immediately after euthanasia (i.e., at Day 16), both eyeballs of all rats of each group were enucleated and prepared for histological examination. They were fixed in Bouin-Hollande solution, dehydrated, and embedded in paraffin wax. They were then cut into eight sections, approximate five to seven micrometers thick and stained with Trichome of Masson.
# [9] = system: S-antigen-induced experimental autoimmune uveitis (EAU) in rats; test: S-antigen-induced experimental autoimmune uveitis in rats (EAU model), slit lamp clinical score (Example 1); assay type: in vivo, rat; conditions: for Slit lamp ocular evaluation of both eyes, Incidence % / Slit lamp ocular evaluation of both eyes, mean clinical score: 10 μl once daily both eyes from Day 7; for Slit lamp ocular evaluation of both eyes, mean clinical score: score 0-6
# Description: as §2, §3, §4
# Both eyes of each rat were examined with a slit-lamp at baseline and then every 2 days from Day 10 to the end of the study. Fifteen minutes prior to each examination, 10 μl of Mydriaticum (0.5% tropicamide) was instilled for papillary dilatation.
# The effect of test material and reference material on ocular inflammation was measured with slit lamp evaluation and scored using the clinical scoring as shown in Table 3: […]
# [10] = system: subject suffering from allergic conjunctivitis; test: Laquinimod for treating allergic conjunctivitis (Example 8); assay type: in vivo; conditions: 0.2 mg-0.5 mg laquinimod/day
# Description: as §1
# A laquinimod composition as described herein is administered to a subject suffering from allergic conjunctivitis at 0.2 mg-0.5 mg laquinimod/day. The administration of the composition is effective to treat the subject suffering from allergic conjunctivitis. The administration of the composition is also effective to reduce intraocular inflammation in the subject. The administration of the composition is also effective to inhibit late ocular anaphylaxis in the subject. The administration of the composition is also effective reduce eosinophil infiltration into the conjunctiva of the subject.
# [11] = 1%, 1× 10 μl instillation/day for 7 days in both eyes
# [12] = 1%, 1×/day for 7 days, 1 mL/kg, per os
# [13] = 5%, 1× 10 μl instillation/day for 7 days in both eyes
# [14] = 5%, 1×/day for 7 days, 1 mL/kg, per os
structure (smiles),measurement,setting,value
"CCN(C(=O)c1c(O)c2c(Cl)cccc2n(C)c1=O)c1ccccc1 [Laquinimod, laquinimod]",treat the subject suffering from the OID,[1],effective
same,reduce intraocular inflammation in the subject,[1]; OID,effective
same,treat the subject suffering from uveitis,[2],effective
same,reduce intraocular inflammation in the subject,[2]; uveitis,effective
same,reduce retina tissue destruction in the subject,[2]; uveitis,effective
same,% Inhibition of clinical score on Day 16,[3]; 1% PO,24%
same,% Inhibition of clinical score on Day 16,[3]; 1% eye drops,−75%
same,% Inhibition of clinical score on Day 16,[3]; 5% PO,39%
same,% Inhibition of clinical score on Day 16,[3]; 5% eye drops,31%
same,treat the subject suffering from viral conjunctivitis,[4],effective
same,reduce intraocular inflammation in the subject,[4]; viral conjunctivitis,effective
same,adverse clinical effect,[5],No adverse clinical effect was observed
same,reduce intraocular inflammation in the subject,[6]; inflammation in the eye,effective
same,treat the subject suffering from the inflammation,"[6]; inflammation of orbital tissue, lacrimal apparatus, eyelid, cornea, retina or optic pathway",effective
same,"Histological ocular evaluation (scale 0-7) Both Eyes/Day 19, mean",[7]; [11],2.8
same,"Histological ocular evaluation, % Inhibition",[7]; [11],7.00%
same,"Histological ocular evaluation (scale 0-7) Both Eyes/Day 19, mean",[7]; [12],2.3
same,"Histological ocular evaluation, % Inhibition",[7]; [12],23.00%
same,"Histological ocular evaluation (scale 0-7) Both Eyes/Day 19, mean",[7]; [13],1.8
same,"Histological ocular evaluation, % Inhibition",[7]; [13],40.00%
same,"Histological ocular evaluation (scale 0-7) Both Eyes/Day 19, mean",[7]; [14],1.2
same,"Histological ocular evaluation, % Inhibition",[7]; [14],60.00%
same,"Histological ocular evaluation of both eyes, mean histologic grade",[8]; 1% Laquinimod,1.2
same,"Histological ocular evaluation of both eyes, mean histologic grade","[8]; 1% Laquinimod, listed as laquinimod",1.2±2.2
same,eyes showing significant destruction of the retina associated with infiltration of inflammatory cells,[8]; 1% laquinimod once per day,four eyes out of sixteen
same,"Histological ocular evaluation of both eyes, mean histologic grade",[8]; 5% Laquinimod,0.7
same,"Histological ocular evaluation of both eyes, mean histologic grade","[8]; 5% Laquinimod, listed as laquinimod",0.7±1.9
same,eyes showing destruction of the retina associated with infiltration of inflammatory cells,[8]; 5% laquinimod once per day,two eyes (from two different animals) out of sixteen
same,"Slit lamp ocular evaluation of both eyes, Incidence %","[9]; 1% Laquinimod, Baseline",0.0%
same,"Slit lamp ocular evaluation of both eyes, mean clinical score","[9]; 1% Laquinimod, Baseline",0.0
same,"Slit lamp ocular evaluation of both eyes, Incidence %","[9]; 1% Laquinimod, Day 10",6.3%
same,"Slit lamp ocular evaluation of both eyes, mean clinical score","[9]; 1% Laquinimod, Day 10",0.1
same,"Slit lamp ocular evaluation of both eyes, Incidence %","[9]; 1% Laquinimod, Day 12",6.3%
same,"Slit lamp ocular evaluation of both eyes, mean clinical score","[9]; 1% Laquinimod, Day 12",0.1
same,"Slit lamp ocular evaluation of both eyes, Incidence %","[9]; 1% Laquinimod, Day 14",18.8%
same,"Slit lamp ocular evaluation of both eyes, mean clinical score","[9]; 1% Laquinimod, Day 14",0.8
same,"Slit lamp ocular evaluation of both eyes, Incidence %","[9]; 1% Laquinimod, Day 16",31.3%
same,"Slit lamp ocular evaluation of both eyes, mean clinical score","[9]; 1% Laquinimod, Day 16",1.3
same,"Slit lamp ocular evaluation of both eyes, mean clinical score","[9]; 1% Laquinimod, Day 16, listed as laquinimod",1.3±2.1
same,"Slit lamp ocular evaluation of both eyes, Incidence %","[9]; 5% Laquinimod, Baseline",0.0%
same,"Slit lamp ocular evaluation of both eyes, mean clinical score","[9]; 5% Laquinimod, Baseline",0.0
same,"Slit lamp ocular evaluation of both eyes, Incidence %","[9]; 5% Laquinimod, Day 10",0.0%
same,"Slit lamp ocular evaluation of both eyes, mean clinical score","[9]; 5% Laquinimod, Day 10",0.0
same,"Slit lamp ocular evaluation of both eyes, Incidence %","[9]; 5% Laquinimod, Day 12",0.0%
same,"Slit lamp ocular evaluation of both eyes, mean clinical score","[9]; 5% Laquinimod, Day 12",0.0
same,"Slit lamp ocular evaluation of both eyes, Incidence %","[9]; 5% Laquinimod, Day 14",6.3%
same,"Slit lamp ocular evaluation of both eyes, mean clinical score","[9]; 5% Laquinimod, Day 14",0.3
same,"Slit lamp ocular evaluation of both eyes, Incidence %","[9]; 5% Laquinimod, Day 16",12.5%
same,"Slit lamp ocular evaluation of both eyes, mean clinical score","[9]; 5% Laquinimod, Day 16",0.6
same,"Slit lamp ocular evaluation of both eyes, mean clinical score","[9]; 5% Laquinimod, Day 16, listed as laquinimod",0.6±1.5
same,rats tested that demonstrated no intraocular inflammation,"[9]; 5% laquinimod solution once per day, Day 16",Six out of eight
same,treat the subject suffering from allergic conjunctivitis,[10],effective
same,inhibit late ocular anaphylaxis in the subject,[10]; allergic conjunctivitis,effective
same,reduce eosinophil infiltration into the conjunctiva of the subject,[10]; allergic conjunctivitis,effective
same,reduce intraocular inflammation in the subject,[10]; allergic conjunctivitis,effective
